Values of other authors as cited in US20090142428A1, “Extracts from the Bark of Corynanthe Species and Use Thereof as Well as Medicaments, Dietetic Food Products and Pharmaceutical Preparations Containing Said Extracts” (DR. WILLMAR SCHWABE GMBH & CO. KG, priority 2005, published 2009).

Tested on: 5-α-reductase
Conditions: uptake of finasteride

SMILES: CC(C)(C)NC(=O)[C@H]1CC[C@H]2[C@@H]3CC[C@H]4NC(=O)C=C[C@]4(C)[C@H]3CC[C@]12C [finasteride]
- reduction of the prostatic DHT concentration: up to 85%
- average reduction of the prostate size (period of up to 12 months): about 20%
